Consider 1 compound from article PMC6677754, “In silico design and optimization of selective membranolytic anticancer peptides” (Scientific Reports, 2019).

Peptide text beside a SMILES is read from it.

The test relates to single MCF7 cells. Put plainly: Microfluidics chip single-cell experiment. It counts as cell-based, human. The note with it: single MCF7 cell in microfluidic chip, peptide 50 µM. How it is done: The AmphiArc2 peptide, the shortest peptide of the low micromolar active peptides, has a high hydrophobic moment (µH = 0.87) and a 180° arc of hydrophobic residues in an idealized helical structure (Fig. 1a). As determined by circular dichroism (CD) spectroscopy, the AmphiArc2 peptide is unstructured in pure water but adopts an alpha-helical structure in a hydrophobic environment (in 50% v/v water:2,2-trifluoroethanol, TFE) (Fig. 1b). […] To further investigate its membranolytic action, we observed the activity of AmphiArc2 on single MCF7 cells entrapped in a microfluidic chip.
The resultant sigmoidal curves were analyzed with the drc22 R package using a log-logistic model with 3 fixed parameters to obtain the HC50 values.
Microfluidics chip experiments
Single cell ACP action was observed on MCF7 cells entrapped in a microfluidic chip following the previously described methodology23. For visualization, cells were stained with calcein-AM at a 1 µM concentration. The calcein-AM penetrates into the cytosol of the cells and it is converted there by intracellular esterases to a fluorescent form that remains encapsulated in the cytosol. […]
in a microfuidic chip chamber after exposure to the AmphiArc2 peptide at a concentration of 50 µM. […] The loss of the cytosolic fluorescence corresponds to a permeabilization of the cell membrane. […]

As to `CC[C@H](C)[C@H](NC(=O)[C@H](CCCNC(=N)N)NC(=O)[C@H](Cc1c[nH]c2ccccc12)NC(=O)[C@@H](NC(=O)[C@H](CCCCN)NC(=O)[C@H](CCCCN)NC(=O)[C@@H](NC(=O)[C@@H](NC(=O)[C@@H](NC(=O)[C@H](CCCCN)NC(=O)[C@H](Cc1ccccc1)NC(=O)[C@H](CCCCN)NC(=O)[C@H](CCCCN)NC(=O)[C@H](Cc1ccccc1)NC(=O)[C@@H](NC(=O)[C@@H](N)CCCCN)[C@@H](C)CC)[C@@H](C)O)[C@@H](C)CC)[C@@H](C)CC)C(C)C)C(=O)N[C@@H](Cc1ccccc1)C(=O)NCC(=O)N[C@@H](CCCNC(=N)N)C(=O)N[C@@H](Cc1ccccc1)C(N)=O` [AmphiArc2] (H-KIFKKFKTIIKKVWRIFGRF-NH2), the “morphological changes in the cell membrane and leakage of the cytosolic components, time after initial contact with the peptide” value (calcein-AM and anti-EpCAM stained, as early as) is 30 seconds. For the same compound, the “time after which the encapsulated dye had leaked out, membrane deformations and blebbing” value (calcein-AM stained) was 95 s.
